US8138175B2, “Heterocyclyl compounds” (Hoffmann-La Roche Inc., priority 2008, dated 2012)

Target: T1, human chemokine receptor 2 isoform B (Homo sapiens, UniProt P41597)
T1 construct: host or cells: CHOK1-CCR2B-A5 (CHO-K1) cells
T1 sequence (P41597 1-360 isoform P41597-2): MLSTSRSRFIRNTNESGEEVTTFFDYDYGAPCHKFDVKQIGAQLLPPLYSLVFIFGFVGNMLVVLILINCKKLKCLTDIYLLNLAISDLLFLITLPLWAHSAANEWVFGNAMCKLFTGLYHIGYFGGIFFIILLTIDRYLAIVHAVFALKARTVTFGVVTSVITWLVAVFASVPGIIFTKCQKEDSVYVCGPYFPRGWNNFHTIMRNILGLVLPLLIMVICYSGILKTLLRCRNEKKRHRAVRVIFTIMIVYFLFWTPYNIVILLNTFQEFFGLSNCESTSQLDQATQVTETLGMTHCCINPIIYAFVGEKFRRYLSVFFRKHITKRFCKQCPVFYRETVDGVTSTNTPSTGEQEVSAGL
Assay: Calcium mobilization assay
Type: cell-based
Conditions: Ca mobilization assay for CCR2; CHOK1-CCR2B-A5 cells; antagonist activity against 20 nM MCP-1; FLIPR, Fluo-4
Procedure: Calcium Mobilization Assay
CHOK1-CCR2B-A5 cells (from Euroscreen) stably overexpressing the human chemokine receptor 2 isoform B were cultured in Nutrient Hams F12 medium supplemented with 5% FBS, 100 U/ml penicillin, 100 μg/ml streptomycin, 400 μg/ml G418 and 5 μg/ml puromycin.
For the assay cells were grown overnight in 384-well black clear flat bottom polystyrene plates (Costar) at 37° C. at 5% CO2. After washing with DMEM, 20 mM Hepes, 2.5 mM probenecid, 0.1% BSA (DMEM assay buffer) cells were loaded with 4 μM Fluo-4 in the same DMEM assay buffer for 2 hours at 30° C. Excess dye was removed and cells were washed with DMEM assay buffer. 384-well compound plates were prepared with DMEM assay buffer/0.5% dimethyl sulfoxide with or without various concentrations of test compounds. Usually compounds were tested for agonist and antagonist activity.
Test compounds were added to the assay plate and agonist activity was monitored as fluorescence for 80 seconds with a FLIPR (488 nm excitation; 510-570 nm emission; Molecular Devices). After 20-30 min. of incubation at 30° C., 20 nM MCP-1 (R&D; Roche) was added and fluorescence was monitored again for 80 seconds. Increases in intracellular calcium are reported as maximum fluorescence after agonist exposure minus basal fluorescence before exposure. Antagonist activity is indicated as inhibitor concentration required for 50% inhibition of specific calcium increases.

With COC[C@H](CCN1CCC2(CC2)[C@H](O)C1)N1CCN(c2cccc(C(F)(F)F)c2)CCC1=O [Example 23, 4-[(S)-3-((S)-4-Hydroxy-6-aza-spiro[2.5]oct-6-yl)-1-methoxymethyl-propyl]-1-(3-trifluoromethyl-phenyl)-[4]diazepan-5-one] as the molecule, how does the IC50 read?
The IC50 was 10 nM.

COC[C@H](CCN1C[C@@H](C)C[C@H](O)C1)N1CCN(c2cccc(C(F)(F)F)c2)CCC1=O [Example 24, 4-[(S)-3-((3S,5S)-3-Hydroxy-5-methyl-piperidin-1-yl)-1-methoxymethyl-propyl]-1-(3-trifluoromethyl-phenyl)-[1,4]diazepan-5-one] was tested. Which IC50 did it give?
The IC50 was 90 nM.

How did the IC50 turn out when O=C1CCN(c2cccc(C(F)(F)F)c2)CCN1C(CO)CCCN1CCC2(CC2)[C@H](O)C1 (stereo partly drawn) [Example 27, 4-[(R,S)-4-((S)-4-Hydroxy-6-aza-spiro[2.5]oct-6-yl)-1-hydroxymethyl-butyl]-1-(3-trifluoromethyl-phenyl)-[1,4]diazepan-5-one] was run?
Its IC50 is 70 nM.

How did the IC50 turn out when COCC(CCCN1CCC2(CC2)[C@H](O)C1)N1CCN(c2cccc(C(F)(F)F)c2)CCC1=O (stereo partly drawn) [Example 28, 4-[(R,S)-4-((S)-4-Hydroxy-6-aza-spiro[2.5]oct-6-yl)-t-methoxymethyl-butyl]-1-(3-trifluoromethyl-phenyl)-[1,4]diazepan-5-one] was run?
The IC50 was 400 nM.

O=C1CCN(c2cccc(OC(F)(F)F)c2)CCN1C(CO)CCCN1CCC2(CC2)[C@H](O)C1 (stereo partly drawn) [Example 32, 4-[(R,S)-4-((S)-4-Hydroxy-6-aza-spiro[2.5]oct-6-yl)-1-hydroxymethyl-butyl]-1-(3-trifluoromethoxy-phenyl)-[1,4]diazepan-5-one] was tested. Which IC50 did it give?
The IC50 was 140 nM.

With O=C1CCN(c2cccc(C(F)(F)F)c2)CCN1CCCN1CCC(O)(c2ccccc2)CC1 [Example 34, 4-[3-(4-Hydroxy-4-phenyl-piperidin-1-yl)-propyl]-1-(3-trifluoromethyl-phenyl)-[1,4]diazepan-5-one] as the molecule, how does the IC50 read?
Its IC50 is 930 nM.

Which IC50 does the source give for CC1C(=O)N(CCCN2CCCCC2)CCN1c1cccc(OC(F)(F)F)c1 (stereo not drawn) [Example 41, 3-Methyl-1-(3-piperidin-1-yl-propyl)-4-(3-trifluoromethoxy-phenyl)-piperazin-2-one] here?
Its IC50 is 580 nM.

For C[C@H]1C(=O)N(CCCN2CCCCC2)CCN1c1cccc(OC(F)(F)F)c1 [Example 42, (S)-3-Methyl-1-(3-piperidin-1-yl-propyl)-4-(3-trifluoromethoxy-phenyl)-piperazin-2-one], which IC50 is on record?
Its IC50 is 180 nM.

CC1C(=O)N(CCCN2CCC3(CC3)[C@H](O)C2)CCN1c1cccc(OC(F)(F)F)c1 (stereo partly drawn) [Example 44, 1-[3-((S)-4-Hydroxy-6-aza-spiro[2.5]oct-6-yl)-propyl]-3-methyl-4-(3-trifluoromethoxy-phenyl)-piperazin-2-one] was tested. Which IC50 did it give?
Its IC50 is 20 nM.

Which IC50 does the source give for C[C@H]1C(=O)N(CCCN2CCC3(CC3)[C@H](O)C2)CCN1c1cccc(OC(F)(F)F)c1 [Example 45, (S)-1-[3-((S)-4-Hydroxy-6-aza-spiro[2.5]oct-6-yl)-propyl]-3-methyl-4-(3-trifluoromethoxy-phenyl)-piperazin-2-one] here?
The IC50 was 10 nM.

Which IC50 does the source give for COC(=O)C(CCN1CCC2(CC2)[C@H](O)C1)N1CCN(c2cccc(OC(F)(F)F)c2)C(C)C1=O (stereo partly drawn) [Example 47, 4-((S)-4-Hydroxy-6-aza-spiro[2.5]oct-6-yl)-2-[3-methyl-2-oxo-4-(3-trifluoromethoxy-phenyl)-piperazin-1-yl]-butyric acid methyl ester] here?
Its IC50 is 10 nM.

How did the IC50 turn out when CC1C(=O)N(C(CCN2CCC3(CC3)[C@H](O)C2)C(=O)O)CCN1c1cccc(OC(F)(F)F)c1 (stereo partly drawn) [Example 48, 4-((S)-4-Hydroxy-6-aza-spiro[2.5]oct-6-yl)-2-[3-methyl-2-oxo-4-(3-trifluoromethoxy-phenyl)-piperazin-1-yl]-butyric acid] was run?
Its IC50 is 30 nM.

With CC1C(=O)N(C(CO)CCN2CCC3(CC3)[C@H](O)C2)CCN1c1cccc(OC(F)(F)F)c1 (stereo partly drawn) [Example 49, 1-[3-((S)-4-hydroxy-6-aza-spiro[2.5]oct-6-yl)-1-hydroxymethyl-propyl]-3-methyl-4-(3-trifluoromethoxy-phenyl)-piperazin-2-one] as the molecule, how does the IC50 read?
The IC50 was 5 nM.

How did the IC50 turn out when CC1C(=O)N(C(CCN2CCC3(CC3)[C@H](O)C2)C(=O)N(C)C)CCN1c1cccc(OC(F)(F)F)c1 (stereo partly drawn) [Example 50, 4-((S)-4-Hydroxy-6-aza-spiro[2.5]oct-6-yl)-N,N-dimethyl-2-[3-methyl-2-oxo-4-(3-trifluoromethoxy-phenyl)-piperazin-1-yl]-butyramide] was run?
The IC50 was 30 nM.

Which IC50 does the source give for CC1C(=O)N(CCCN2CCCCC2)CCN1c1cccc(C(F)(F)F)c1 (stereo not drawn) [Example 51, 3-Methyl-1-(3-piperidin-1-yl-propyl)-4-(3-trifluoromethyl-phenyl)-piperazin-2-one] here?
The IC50 was 190 nM.

C[C@H]1C(=O)N(CCCN2CCCCC2)CCN1c1cccc(C(F)(F)F)c1 [Example 52, (S)-3-Methyl-1-(3-piperidin-1-yl-propyl)-4-(3-trifluoromethyl-phenyl)-piperazin-2-one] was tested. Which IC50 did it give?
Its IC50 is 130 nM.

With COC(=O)C(CCN1CCC2(CC2)[C@H](O)C1)N1CCN(c2cccc(C(F)(F)F)c2)C(C)C1=O (stereo partly drawn) [Example 54, 4-((S)-4-Hydroxy-6-aza-spiro[2.5]oct-6-yl)-2-[3-methyl-2-oxo-4-(3-trifluoromethyl-phenyl)-piperazin-1-yl]-butyric acid methyl ester] as the molecule, how does the IC50 read?
Its IC50 is 10 nM.

CC1C(=O)N(C(CO)CCN2CCC3(CC3)[C@H](O)C2)CCN1c1cccc(C(F)(F)F)c1 (stereo partly drawn) [Example 55, 1-[3-((S)-4-Hydroxy-6-aza-spiro[2.5]oct-6-yl)-1-hydroxymethyl-propyl]-3-methyl-4-(3-trifluoromethyl-phenyl)-piperazin-2-one] was tested. Which IC50 did it give?
The IC50 was 10 nM.

Which IC50 does the source give for COCC(CCN1CCC2(CC2)[C@H](O)C1)N1CCN(c2cccc(C(F)(F)F)c2)C(C)C1=O (stereo partly drawn) [Example 56, 1-[3-((S)-4-Hydroxy-6-aza-spiro[2.5]oct-6-yl)-1-methoxymethyl-propyl]-3-methyl-4-(3-trifluoromethyl-phenyl)-piperazin-2-one] here?
Its IC50 is 10 nM.

With CC1C(=O)N(CC2CCCN(C)C2)CCN1c1cccc(C(F)(F)F)c1 (stereo not drawn) [Example 58, 3-Methyl-1-(1-methyl-piperidin-3-ylmethyl)-4-(3-trifluoromethyl-phenyl)-piperazin-2-one] as the molecule, how does the IC50 read?
Its IC50 is 680 nM.

How did the IC50 turn out when CN(C)C(=O)[C@H](CCN1CCC2(CC2)[C@H](O)C1)N1CCN(c2ccc(Cl)c(Cl)c2)CCC1=O [Example 59, (S)-2-[4-(3,4-Dichloro-phenyl)-7-oxo-[1,4]diazepan-1-yl]-4-((S)-4-hydroxy-6-aza-spiro[2.5]oct-6-yl)-N,N-dimethyl-butyramide] was run?
Its IC50 is 80 nM.

How did the IC50 turn out when CN(CCO)C(=O)[C@H](CCN1CCC2(CC2)[C@H](O)C1)N1CCN(c2ccc(Cl)c(Cl)c2)CCC1=O [Example 61, (S)-2-[4-(3,4-Dichloro-phenyl)-7-oxo-[1,4]diazepan-1-yl]-4-((S)-4-hydroxy-6-aza-spiro[2.5]oct-6-yl)-N-(2-hydroxy-ethyl)-N-methyl-butyramide] was run?
The IC50 was 76 nM.

CN(C(=O)[C@H](CCN1CCC2(CC2)[C@H](O)C1)N1CCN(c2ccc(Cl)c(Cl)c2)CCC1=O)C1CC1 [Example 62, (S)—N-Cyclopropyl-2-[4-(3,4-dichloro-phenyl)-7-oxo-[1,4]diazepan-1-yl]-4-((S)-4-hydroxy-6-aza-spiro[2.5]oct-6-yl)-N-methyl-butyramide] was tested. Which IC50 did it give?
Its IC50 is 330 nM.

With NC(=O)[C@H](CCN1CCC2(CC2)[C@H](O)C1)N1CCN(c2ccc(Cl)c(Cl)c2)CCC1=O [Example 64, (S)-2-[4-(3,4-Dichloro-phenyl)-7-oxo-[1,4]diazepan-1-yl]-4-((S)-4-hydroxy-6-aza-spiro[2.5]oct-6-yl)-butyramide] as the molecule, how does the IC50 read?
The IC50 was 663 nM.
